Literature values in patent US20240189475A1 (PUKYONG NATIONAL UNIVERSITY INDUSTRY-UNIVERSITY COOPERATION …, priority 2022, published 2024).

Settings: background statement

CC(=O)c1c(O)c(C)c(O)c2c1OC1=CC(=O)C(C(C)=O)C(=O)C12C (stereo not shown) [UA, usnic acid]
solubility in water: low solubility in water
